# Source: patent US12048737B2, “Use of a vaccine targeting a cryptic tert epitope, for treating cancer in a HLA-A*0201-positive patient having a non-immunogenic tumor expressing tert” (KRIPTIC PHARMACEUTICALS LIMITED, priority 2017, dated 2024)
# Tested on: NSCLC tumors expressing TElomerase Reverse Transcriptase (TERT)
# Experiment: Vx-001-201 randomized double blind phase IIb study: clinical outcome (OS, TTF, 12 months survival)
# Format: in vivo, human
# Text: The Vx-001-201 study is a randomized, double blind multicenter study done in 70 centers in France, Germany, Spain, Italy, Greece, Poland, Romania and Czech Republic. Key eligibility criteria were a) non small cell lung cancer (NSCLC), b) stage IV or recurrent stage I-III, c) disease control after platinum based first line chemotherapy according to RECIST 1.1 criteria, d) HLA-A*0201 positivity, e) tumors expressing TElomerase Reverse Transcriptase (TERT), f) ECOG 0 or 1 g) absence of brain metastasis.
# • a) Principal endpoint: overall survival (OS) measured from randomization • b) Secondary endpoints: • Time to Treatment Failure (TTF) measured from randomization • OS at 12 months • c) Main exploratory objectives • Evaluation of vaccine induced specific immune response • Correlation between vaccine specific immune response and clinical response Procedures and Vaccination Protocol
# Patients who fulfilled all inclusion criteria were randomized within 4 weeks after the end of first line chemotherapy.
# The vaccination protocol consisted in six vaccinations at three week interval. The optimized Vx-001/TERT572Y was used in the first two vaccinations and the native Vx-001/TERT572 in the following four vaccinations. Patients who continued controlling their disease after the sixth vaccination received boost vaccination with the Vx-001/TERT572 every three months. Vaccination was stopped at disease progression (FIG. 1).
# The primary and secondary endpoints were analysed in the Full Analysis Set (FAS) composed of all patients who fulfilled the five main criteria a) NSCLC, b) stage IV or recurrent stage I-III, c) disease control after first line chemotherapy, d) HLA-A*0201 positivity and e) TERT expressing tumors.
# We used the Kaplan-Meier method to estimate OS and TTF in each arm and a Cox proportional hazards regression model to estimate Hazard Ratio (HR) relating OS and TTF to the treatment effect.
# [1] = FAS, all patients, Vx-001 vs placebo
# [2] = FAS, OR to chemotherapy (n = 87)
# [3] = FAS, SD to chemotherapy (n = 103)
# [4] = Vx-001 responders vs non-responders
# [5] = patients with no natural immunity
# [6] = patients without natural immunity, Vx-001 vs placebo
# [7] = vaccinated patients, Vx-001 immune non-responders
# [8] = vaccinated patients, Vx-001 immune responders
# [9] = with natural immunity, assessed before 26 days after end of chemotherapy
# [10] = with natural immunity, assessed before 26 days after end of chemotherapy, Vx-001 vs placebo
# [11] = within Vx-001 treated (n = 80): natural immunity vs no natural immunity
# [12] = without natural immunity, assessed less than 26 days after end of chemotherapy
# [13] = without natural immunity, assessed less than 26 days after end of chemotherapy, Vx-001 vs placebo
# [14] = without natural immunity, 1st line CARBO (n = 74)
# [15] = without natural immunity, 1st line CARBO (n = 74), Vx-001 vs placebo
# [16] = without natural immunity, 1st line CDDP (n = 46)
# [17] = without natural immunity, 1st line CDDP (n = 46), Vx-001 vs placebo
# [18] = without natural immunity, <65 years (n = 59)
substance,measurement,setting,value
"Vx-001: vaccine composed of two nine amino acid peptides, TERT572 and TERT572Y, administered separately with the adjuvant Montanide ISA51 VG (chain 1 RLFFYRKSV; chain 2 YLFFYRKSV; Montanide ISA51 VG adjuvant; peptide from a human protein; optimized peptide)",12 months survival,"FAS, all patients",58%
same,Median OS,"FAS, all patients",14.3 months
same,Median TTF,"FAS, all patients",3.6 months
same,HR (OS),[1],0.97
same,HR (TTF),[1],0.88
same,12 months OS,"FAS, 1st line CARBO (n = 119)",58.2%
same,Median survival (OS),"FAS, 1st line CARBO (n = 119)",14.3 months
same,HR (OS),"FAS, 1st line CARBO (n = 119), Vx-001 vs placebo",1.06
same,12 months OS,"FAS, 1st line CDDP (n = 69)",59%
same,Median survival (OS),"FAS, 1st line CDDP (n = 69)",15 months
same,HR (OS),"FAS, 1st line CDDP (n = 69), Vx-001 vs placebo",0.81
same,12 months OS,"FAS, <65 years (n = 92)",57.7%
same,Median survival (OS),"FAS, <65 years (n = 92)",13.4 months
same,HR (OS),"FAS, <65 years (n = 92), Vx-001 vs placebo",1.2
same,12 months OS,"FAS, >65 years (n = 98)",59%
same,Median survival (OS),"FAS, >65 years (n = 98)",15 months
same,HR (OS),"FAS, >65 years (n = 98), Vx-001 vs placebo",0.78
same,12 months OS,"FAS, Female (n = 59)",53.3%
same,Median survival (OS),"FAS, Female (n = 59)",13.2 months
same,HR (OS),"FAS, Female (n = 59), Vx-001 vs placebo",1.52
same,12 months OS,"FAS, Male (n = 131)",61%
same,Median survival (OS),"FAS, Male (n = 131)",15 months
same,HR (OS),"FAS, Male (n = 131), Vx-001 vs placebo",0.81
same,12 months OS,"FAS, NSQ (n = 118)",55%
same,Median survival (OS),"FAS, NSQ (n = 118)",13.4 months
same,HR (OS),"FAS, NSQ (n = 118), Vx-001 vs placebo",0.88
same,12 months OS,[2],69%
same,Median survival (OS),[2],15.3 months
same,HR (OS),"FAS, OR to chemotherapy (n = 87), Vx-001 vs placebo",0.89
same,12 months OS,[3],52%
same,Median survival (OS),[3],14.3 months
same,HR (OS),"FAS, SD to chemotherapy (n = 103), Vx-001 vs placebo",0.99
same,12 months OS,"FAS, SQ (n = 72)",64%
same,Median survival (OS),"FAS, SQ (n = 72)",14.3 months
same,HR (OS),"FAS, SQ (n = 72), Vx-001 vs placebo",1.13
same,HR (OS),[4],0.39
same,HR (TTF),[4],0.41
same,12 months OS,patients with natural immunity,65%
same,Median TTF,patients with natural immunity,2.9 months
same,"OS and 12 months survival, placebo vs Vx-001",patients with natural immunity (FIG. 6),no difference
same,Median survival (OS),patients with natural immunity against TERT572,15.5 months
same,12 months OS,[5],55%
same,Median TTF,[5],4.1 months
same,Median survival (OS),patients with no natural immunity against TERT572 (non-immunogenic tumors),13.2 months
same,HR (OS),[6],0.80
same,HR (TTF),[6],0.75
same,Median OS,[7],13.4 months
same,Median TTF,[7],3.6 months
same,Median OS,[8],21.3 months
same,Median TTF,[8],9.1 months
same,Median OS,[9],15.3 months
same,Median TTF,[9],2.2 months
same,HR (OS),[10],1.54
same,HR (TTF),[10],1.98
same,HR (OS),[11],0.91
same,HR (TTF),[11],0.83
same,Median OS,"without natural immunity, assessed later than 26 days after chemotherapy",13.2 months
same,HR (OS),"without natural immunity, assessed later than 26 days after chemotherapy, Vx-001 vs placebo",0.96
same,Median OS,[12],11.7 months
same,Median TTF,[12],4.1 months
same,HR (OS),[13],0.58
same,HR (TTF),[13],0.62
same,12 months OS,[14],53%
same,Median TTF,[14],3.7 months
same,Median survival (OS),[14],13.1 months
same,HR (OS),[15],1.03
same,HR (TTF),[15],0.80
same,12 months OS,[16],59%
same,Median TTF,[16],4.1 months
same,Median survival (OS),[16],13.4 months
same,HR (OS),[17],0.51
same,HR (TTF),[17],0.67
same,12 months OS,[18],53.6%
same,Median TTF,[18],3.5 months
